In PMC8489181 (Clinical cancer research : an official journal of the …, 2020):

Experiments:
[1] = ribociclib CYP3A4 inhibitor, everolimus CYP3A4 substrate; cited from earlier work
[2] = test system: postmenopausal women with HR+, HER2− advanced breast cancer; experiment: Safety and tolerability; format: in vivo, human
[3] = test system: postmenopausal women with ER+, HER2− ABC; experiment: Dose-limiting toxicities in cycle 1; format: in vivo
[4] = Everolimus whole blood pharmacokinetics; format: in vivo, human; conditions: for AUC(0-t): AUC0–24h at steady state; for AUC(0-t) / Cmax: everolimus 2.5 mg; for Cmax: geometric mean Cmax at steady state
[5] = Ribociclib plasma pharmacokinetics; format: in vivo, human; conditions: for AUC(0-t): geometric mean AUC0–24h at steady state; for half-life: geometric mean effective half-life based on drug accumulation
[6] = dose-escalation group 1 (fasting)
[7] = taken with food, ribociclib 3 weeks on/1 week off in a 4-week cycle
[8] = female, human, whole blood, oral, dose-escalation group 1
[9] = female, human, whole blood, oral, dose-escalation group 2
[10] = dose-expansion group 1 (CDK4/6i-naïve)
[11] = dose-expansion group 2 (CDK4/6i-refractory)
[12] = female, human, plasma, oral, dose-escalation group 1
[13] = female, human, plasma, oral, dose-escalation group 2

## CO[C@H]1C[C@@H]2CC[C@@H](C)[C@@](O)(O2)C(=O)C(=O)N2CCCC[C@H]2C(=O)O[C@H]([C@H](C)C[C@@H]2CC[C@@H](OCCO)[C@H](OC)C2)CC(=O)[C@H](C)/C=C(\C)[C@@H](O)[C@@H](OC)C(=O)[C@H](C)C[C@H](C)/C=C/C=C/C=C/1C [everolimus]
[1]
  expected increase of everolimus exposure by treatment with ribociclib: approximately 3.5 fold
[2]; [6]
  patients requiring ≥1 dose interruption: 70.7%
  patients requiring ≥1 dose reduction: 2.4%
[2]; dose-escalation group 2 (fed)
  patients requiring ≥1 dose interruption: 83.3%
  patients requiring ≥1 dose reduction: 4.8%
[2]; dose-expansion phase
  dose reductions: no dose reductions
[3]; [7]
  recommended phase II dose (RP2D) in the triplet: 2.5 mg once daily
[4]; at the RP2D
  AUC0–24h: 303 ng·h/mL
[4]; dose-escalation phase
  everolimus exposure increase in the presence of ribociclib (dose-dependent DDI): two- to fourfold
[4]; female, human, whole blood, oral
  Tmax: 1 to 2 h
[4]; [8]
  AUC(0-t): 166 to 307 ng·h/mL
  Cmax: 19.7 to 30.3 ng/mL
[4]; [9]
  AUC(0-t): 117 to 316 ng·h/mL
  Cmax: 8.25 to 29.4 ng/mL

## C=C1C[C@@H]2[C@H](CC[C@]3(C)C(=O)CC[C@@H]23)[C@@]2(C)C=CC(=O)C=C12 [exemestane]
[2]; [6]
  patients requiring ≥1 dose interruption: 61%
[2]; dose-escalation group 2 (fed)
  patients requiring ≥1 dose interruption: 71.4%
[3]; female, human, in vivo, 28 days
  recommended phase II dose (RP2D) in the triplet: 25 mg once daily

## CN(C)C(=O)c1cc2cnc(Nc3ccc(N4CCNCC4)cn3)nc2n1C1CCCC1 [ribociclib]
[2]; [6]
  patients requiring ≥1 dose interruption: 68.3%
  patients requiring ≥1 dose reduction: 22.0%
[2]; dose-escalation group 2 (fed)
  patients requiring ≥1 dose interruption: 80.9%
  patients requiring ≥1 dose reduction: 33.3%
[2]; [10]
  patients requiring ≥1 dose interruption: 87.5%
  patients requiring ≥1 dose reduction: 43.8%
[2]; [11]
  patients requiring ≥1 dose interruption: 82.4%
  patients requiring ≥1 dose reduction: 23.5%
[3]; [7]
  recommended phase II dose (RP2D) in the triplet: 300 mg once daily
[5]; female, human, plasma, oral
  Tmax: 1 to 4 h
[5]; female, human, plasma, oral, Cmax at steady state, at the RP2D
  Cmax: 773 ng/mL
[5]; [12]
  AUC(0-t): 4570 to 11100 ng·h/mL
  half-life: 24.9 to 47.6 h
[5]; [13]
  AUC(0-t): 3970 to 13400 ng·h/mL
  half-life: 29.5 to 49.9 h
[5]; female, human, plasma, oral, geometric mean Cmax at steady state, dose-escalation group 1, 200–350 mg dose
  Cmax: 413 to 1000 ng/mL
[5]; female, human, plasma, oral, geometric mean Cmax at steady state, dose-escalation group 2
  Cmax: 289 to 955 ng/mL
[5]; same dose level, fed versus fasted
  mean steady-state exposure in the presence of food: slightly lower
[5]; triplet combination, versus single-agent ribociclib exposure
  DDI in the presence of everolimus and exemestane: No DDIs were observed
